According to paper PMC10460844, “Real‐Time Monitoring of Multitarget Antimicrobial Mechanisms of Peptoids Using Label‐Free Imaging with Optical Diffraction Tomography” (Advanced Science, 2023):
Values after ≈ are worked out from the molar mass of the structure shown. Where two headings read alike, the source gives them in different places. Square brackets hold non-standard residues; d marks the D form. Peptide text beside a SMILES is read from it. Gly(N(CH2)2(3-indolyl)) = O=C(O)CNCCc1c[nH]c2ccccc12; Nspe = C[C@H](NCC(=O)O)c1ccccc1; Nphe = O=C(O)CNCc1ccccc1; Nlys = NCCCCNCC(=O)O

Key:
[1] = Analytical reversed-phase HPLC elution (hydrophobicity); format: physicochemical; settings: analytical RP-HPLC, 1 mL/min, UV 220 nm; for HPLC elution (%ACN): Table 1, SunFire C18 […] 250 mm, water/ACN + 0.1% TFA, 5% B 2 min then linear to 100% B over 30 min, used as measure of hydrophobicity
Method in brief: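 Analytical reversed-phase HPLC on a C18 column (4.6 × 250 mm, 5 μm) at 1 mL/min, water/acetonitrile each with 0.1% TFA. Held at 5% B for 2 min, then linear to 100% B over 30 min and held 5 min, with UV detection at 220 nm; retention time (tR) serves as hydrophobicity measure.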

E. coli ATCC 25922 [2] = format: cell-based, Escherichia coli
Method: (§1) The antibacterial activity of the peptoids was evaluated against gram‐positive (Staphylococcus aureus, ATCC 25 923) and gram‐negative (Escherichia coli, ATCC 25 922) bacteria. […] The MIC of each peptoid was determined using a broth dilution assay. For each assay, the primary culture of either S. aureus or E. coli was grown overnight in cation‐adjusted Mueller Hinton broth 2 (MHB2) media at 37 °C with shaking. A secondary culture was prepared the next day, grown for 3–4 h, and then diluted in MHB2 media with a final concentration of 0.001% acetic acid and 0.02% bovine serum albumin to obtain a calculated optical density (OD) of 0.001. This corresponded to ≈2–5 × 10^5 colony‐forming units (CFU mL^−1) of bacteria. Using 96‐well polypropylene plates (Eppendorf, Hamburg, Germany), 100 µL of 2–5 × 10^5 CFU mL^−1 bacteria were added in triplicate for each peptoid. Each peptoid was assayed at six different concentrations in two‐fold serial dilutions. The maximum peptoid concentration was 25 µM. […] The MIC value determination was performed in triplicate. The MIC was defined as the lowest peptoid concentration that prevented turbidity during visual inspection.

S. aureus ATCC 25923 = format: cell-based, Staphylococcus aureus
Method: as §1

rat erythrocytes = experiment: Hemolysis assay; format: cell-based
Method in brief: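 Washed Sprague-Dawley rat erythrocytes (10% suspension in PBS pH 7.4) mixed with peptoids (0–100 µM), 60 min at 37 °C; supernatant A540 expressed as % of 1% Triton X-100 lysis. HC10/HC50 are concentrations giving 10%/50% hemolysis; Hmax is hemolysis at 100 µM.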

E. faecium KCTC 13225 = format: cell-based; settings: KCTC 13225
E. faecalis KCTC 3511 = format: cell-based; settings: KCTC 3511
S. typhimurium SL 1344 = format: cell-based; settings: SL 1344
E. coli ATCC 25922 [3] = experiment: NPN uptake assay (outer membrane); format: cell-based; settings: E. coli ATCC 25922, 5 mM HEPES pH 7.2, 10 µM NPN, fluorescence
Method: 14. In vitro biological assays […]
The ability of peptoids to increase the permeability of the outer membrane of Gram-negative bacteria was determined by measuring the incorporation of the NPN fluorescent dye into the outer membrane of E. coli ATCC 25922. Bacterial cells were suspended to a final concentration of OD600 = 0.05 in 5 mM HEPES buffer, pH 7.2, containing 5 mM KCN. Then […]
200 μL NPN dye was added to wells of a 96 well plate to produce a final concentration of 10 μM, and the background fluorescence was recorded (λex = 350 nm, λem = 420 nm). Aliquots of peptoids were added to the well, and fluorescence was recorded as a function of time until there was no further increase in fluorescence. Increases of the permeability of the outer membrane after the addition of peptoids was reflected by increased fluorescence values as a result of NPN incorporation into the membrane. […]

E. coli ML-35 cells = experiment: ONPG hydrolysis assay (inner membrane); format: cell-based; settings: 1.5 mM ONPG, 10 mM sodium phosphate pH 7.4, absorbance 405 nm
Method: The permeability of the inner membrane was determined using E. coli ML-35 cells […]
The intact bacterial inner membrane is non-permeable to o-nitrophenyl-β-D-galactopyranoside (OPNG), a chromogenic substrate of the β-galactosidase.
Following damage to the inner membrane, OPNG enters the cells and is metabolized by β-galactosidase creating a chromogenic […]. E. coli cells were washed in 10 mM sodium phosphate (pH 7.4) containing 100 mM NaCl and resuspended in the same buffer at a final concentration of OD600 = 0.5 containing 1.5 mM ONPG. The hydrolysis of ONPG and generation of o-nitrophenol over time were monitored as absorbance change at 405 nm following the addition of peptoids. […]

[4] = Table S2, broth dilution, MHB2, 37 °C 24 h, max 25 µM, mean of triplicate
[5] = Table S3, counter-ion exchange series (TFA, HCl, AcOH salts), mean of triplicate

HPLC elution ([1]; Table S1, SunFire C18, water/ACN + 0.1% TFA, 5 to 100% B linear over 30 min, approximate comparison of hydrophobicity) | SMILES | HPLC elution (%ACN) [1] | MIC E. coli ATCC25922 (E. coli ATCC 25922 [2]; [4]) | MIC E. coli ATCC25922 (E. coli ATCC 25922 [2]; [5]) | MIC S. aureus ATCC25923 (S. aureus ATCC 25923; ATCC 25923) | MIC S. aureus ATCC25923 (S. aureus ATCC 25923; [4]) | H max (100 µM) (rat erythrocytes) | Hmax (100 µM) (rat erythrocytes) | HC10 (rat erythrocytes; red cells of rat) | HC50 (rat erythrocytes; red cells of rat) | MIC E. faecium KCTC 13225 (E. faecium KCTC 13225) | MIC E. faecalis KCTC 3511 (E. faecalis KCTC 3511) | MIC S. typhimurium SL 1344 (S. typhimurium SL 1344) | outer membrane disruption (NPN uptake) (E. coli ATCC 25922 [3]) | inner membrane disruption (ONPG hydrolysis) (E. coli ML-35 cells) | HC10 (rat erythrocytes; pH 7.4) | HC50 (rat erythrocytes; pH 7.4) | MIC E. coli ATCC25922 (E. coli ATCC 25922 [2]; ATCC 25922)
– | C[C@@H](c1ccccc1)N(CC(N)=O)C(=O)CN(C(=O)CN(CCCCN)C(=O)CN(C(=O)CN(C(=O)CN(CCCCN)C(=O)CN(C(=O)CN(C(=O)CN(CCCCN)C(=O)CN(CCc1c[nH]c2ccccc12)C(=O)CN(CCc1c[nH]c2ccccc12)C(=O)CNCCCCN)[C@@H](C)c1ccccc1)[C@@H](C)c1ccccc1)[C@@H](C)c1ccccc1)[C@@H](C)c1ccccc1)[C@@H](C)c1ccccc1 [peptoid 14] | 55.6 %ACN | 3.1 µM (≈ 5.88 µg/mL) | 3.1 µM | 1.6 µM (≈ 3.04 µg/mL) | < 0.8 µM | 90.0 ± 7.3% | 112.9±2.1% | 12.5 µM | 21.1 µM | <0.8 µM | 1.6 µM (≈ 3.04 µg/mL) | 12.5 µM (≈ 23.7 µg/mL) | strongly disrupted | strongly disrupted | – | – | –
– | C[C@@H](c1ccccc1)N(CC(N)=O)C(=O)CN(C(=O)CN(CCCCN)C(=O)CN(C(=O)CN(C(=O)CN(CCCCN)C(=O)CN(C(=O)CN(C(=O)CN(CCCCN)C(=O)CN(CCc1c[nH]c2ccccc12)C(=O)CN(C(=O)CNCCCCN)[C@@H](C)c1ccccc1)[C@@H](C)c1ccccc1)[C@@H](C)c1ccccc1)[C@@H](C)c1ccccc1)[C@@H](C)c1ccccc1)[C@@H](C)c1ccccc1 [peptoid 10] | 54.9 %ACN | 3.1 µM (≈ 5.76 µg/mL) | 3.1 µM | 0.8 µM (≈ 1.49 µg/mL) | 1.6 µM (≈ 2.97 µg/mL) | 108.1 ± 1.7% | 101.4±5.1% | 6.9 µM | 25.8 µM | 12.5 µM (≈ 23.2 µg/mL) | 12.5 µM (≈ 23.2 µg/mL) | 12.5 µM (≈ 23.2 µg/mL) | strongly disrupted | strongly disrupted | 6.6 µM | 17.0 µM | –
47.3 % MeCN | C[C@@H](c1ccccc1)N(CC(=O)N(CCCCN)CC(=O)N(CC(=O)N(CC(N)=O)Cc1ccccc1)Cc1ccccc1)C(=O)CN(CCCCN)C(=O)CN(CCCCN)C(=O)CN(C(=O)CN(C(=O)CN(CCCCN)C(=O)CN(C(=O)CN(C(=O)CNCCCCN)[C@@H](C)c1ccccc1)[C@@H](C)c1ccccc1)[C@@H](C)c1ccccc1)[C@@H](C)c1ccccc1 [peptoid 45] (H-[Nlys][Nspe][Nspe][Nlys][Nspe][Nspe][Nlys][Nlys][Nspe][Nlys][Nphe][Nphe]-NH2) | – | > 25 µM | – | – | 25 µM (≈ 44 µg/mL) | 4.5 ± 0.2% | 4.5±0.2% | – | – | – | – | – | – | – | > 100 µM | > 100 µM | –
– | C[C@@H](c1ccccc1)N(CC(N)=O)C(=O)CN(C(=O)CN(CCCCN)C(=O)CN(C(=O)CN(C(=O)CN(CCCCN)C(=O)CN(C(=O)CN(C(=O)CN(CCCCN)C(=O)CN(CCc1c[nH]c2ccccc12)C(=O)CN(C(=O)CNCCCCN)[C@@H](C)c1ccccc1)[C@@H](C)c1ccccc1)[C@@H](C)c1ccccc1)[C@@H](C)c1ccccc1)[C@@H](C)c1ccccc1)[C@@H](C)c1ccccc1 [10-AcOH] | – | – | – | 1.6 µM (≈ 2.97 µg/mL) | – | – | 102.3±11.3% | 14.1 µM | 29.4 µM | – | – | – | – | – | – | – | 6.3 µM (≈ 11.7 µg/mL)
– | C[C@@H](c1ccccc1)N(CC(=O)N(CCCCN)CC(=O)N(CCc1c[nH]c2ccccc12)CC(=O)N(CCc1c[nH]c2ccccc12)CC(N)=O)C(=O)CN(CCCCN)C(=O)CN(CCCCN)C(=O)CN(C(=O)CN(C(=O)CN(CCCCN)C(=O)CN(C(=O)CN(C(=O)CNCCCCN)[C@@H](C)c1ccccc1)[C@@H](C)c1ccccc1)[C@@H](C)c1ccccc1)[C@@H](C)c1ccccc1 [29-AcOH] (H-[Nlys][Nspe][Nspe][Nlys][Nspe][Nspe][Nlys][Nlys][Nspe][Nlys][Gly(N(CH2)2(3-indolyl))][Gly(N(CH2)2(3-indolyl))]-NH2) | – | – | – | 12.5 µM (≈ 23.3 µg/mL) | – | – | 5.2±0.2% | > 100 µM | > 100 µM | – | – | – | – | – | – | – | 6.3 µM (≈ 11.7 µg/mL)
– | C[C@@H](c1ccccc1)N(CC(=O)N(CCCCN)CC(=O)N(CC(=O)N(CC(=O)N(CCCCN)CC(=O)N(CC(=O)N(CC(=O)N(CCCCN)CC(=O)N(CCc1c[nH]c2ccccc12)CC(=O)N(CCc1c[nH]c2ccccc12)CC(N)=O)[C@@H](C)c1ccccc1)[C@@H](C)c1ccccc1)[C@@H](C)c1ccccc1)[C@@H](C)c1ccccc1)C(=O)CN(C(=O)CNCCCCN)[C@@H](C)c1ccccc1 [11-AcOH] (H-[Nlys][Nspe][Nspe][Nlys][Nspe][Nspe][Nlys][Nspe][Nspe][Nlys][Gly(N(CH2)2(3-indolyl))][Gly(N(CH2)2(3-indolyl))]-NH2) | – | – | – | 1.6 µM (≈ 3.04 µg/mL) | – | – | 110.4±0.2% | 8.7 µM | 29.7 µM | – | – | – | – | – | – | – | 3.1 µM (≈ 5.88 µg/mL)
– | C[C@@H](c1ccccc1)N(CC(N)=O)C(=O)CN(CCCCN)C(=O)CN(CCCCN)C(=O)CN(C(=O)CN(C(=O)CN(CCCCN)C(=O)CN(C(=O)CN(C(=O)CN(CCCCN)C(=O)CN(CCc1c[nH]c2ccccc12)C(=O)CN(CCc1c[nH]c2ccccc12)C(=O)CNCCCCN)[C@@H](C)c1ccccc1)[C@@H](C)c1ccccc1)[C@@H](C)c1ccccc1)[C@@H](C)c1ccccc1 [32-AcOH] | – | – | – | 6.3 µM (≈ 11.7 µg/mL) | – | – | 13.8±1.1% | 83.0 µM | > 100 µM | – | – | – | – | – | – | – | 6.3 µM (≈ 11.7 µg/mL)
